Assay results taken from patent publication US20070104743A1, “Formulations of fispemifene” (HORMOS MEDICAL LTD., priority 2005, published 2007).

How the values were obtained:
[1] = Serum concentration of fispemifene in monkeys after administration in two different vehicles; type: in vivo; details: two female Cynomolgus monkeys, single oral dose 500 mg/kg, LC-MS/MS
Method: Serum concentration of fispemifene in monkeys after administration of fispemifene in two different vehicles
A pilot study on exposure of fispemifene in two female Cynomolgus monkeys ( #05084 and #06170) was carried out. Fispemifene was administered by single oral dosing of 500 mg/kg in two different vehicles, 0.5% carboxymethyl cellulose in water (CMC), and in corn oil. Blood samples were collected 0, 1, 2, 4, 6, 8, 12, 16 and 24 hours after dosing. Concentrations of fispemifene were determined using LC-MS/MS.

Solubility in water = type: physicochemical

OCCOCCOc1ccc(/C(=C(/CCCl)c2ccccc2)c2ccccc2)cc1 [Fispemifene, (Z)-2-{2-[4-(4-chloro-1,2-diphenylbut-1-enyl)phenoxy]ethoxy}ethanol]
fispemifene quantifiable in serum samples after drug administration ([1]; CMC or corn oil vehicle, samples 1-24 h): quantifiable in all serum samples | serum fispemifene concentration, corn oil vehicle relative to 0.5% CMC in aqueous solution ([1]; corn oil vs 0.5% carboxymethyl cellulose in water, 0-24 h): more than 10 fold | solubility in water (Solubility in water): only sparingly soluble
